The test system of experiment [1] is HBsAg. The experiment in a line: microbe, parasite or virus in culture. The settings on record: Hepatitis B virus. The format is cell-based, HBV genotype D; primary human hepatocytes. The protocol: The day PHH seeding date was defined as day 0.
The PHH were infected with 400 HBV GE/cell of HBV genotype D type HBV on day 1.
The test articles were further diluted with the culture medium to the final test concentrations.
All the test articles were further diluted 100 times with the culture medium. The final concentration of DMSO in the culture medium was […].
The compounds were tested at 7 concentrations, 3-fold dilution, in triplicate.
Four two-way combinations were performed on a 5×5 matrix, in triplicate plates. Transfection reagent was present in all wells. The culture medium containing the articles were refreshed every 1 or 2 days.
HBsAg in the culture supernatants harvested on days 8 was measured using the HBsAg/ELISA kit (Autobio) according to the manual. The samples were diluted with PBS to get the signal in the range of the standard curve. Percent inhibition of HBsAg was calculated with the formula below:
% Inh. HBsAg=[1−HBsAg quantity of sample/[…] of DMSO control]×100
Results of double combination studies were analyzed using MacSynergy II software (Prichard and Shipman, 1992).

Experiment [2] has as its system HBV DNA. The experiment in a line: Serum HBV DNA in pHBV1.3 hydrodynamic injection mouse model of HBV (Example 12). Particulars: once daily oral from Day 0: RNA destabilizer 10 mg/kg, encapsidation inhibitor 100 mg/kg, nucleos(t)ide analog 0.4 mg/kg, group mean ± SEM, n=7 or 8, from negative control. Format: in vivo, NOD.CB17-Prkdc scid/J mice; HBV genotype D, serotype ayw. The protocol: (§1) On Day −7, 10 micrograms of the plasmid pHBV1.3 (constructed based on details provided in Guidotti, L., et al., Journal of Virology, 1995, 69(10): 6158-6169) was administered to NOD.CB 17-Prkdc^scid/J mice via hydrodynamic injection (HDI; rapid 1.6 mL injection into the tail vein). […] As readouts of the anti-HBV effect of the treatments, serum HBV DNA and serum HBsAg were assessed. Serum HBV DNA concentration in mice was measured using a quantitative PCR assay following total DNA extraction using previously published primers and probe sequences (Tanaka, Y., et al., Journal of Medical Virology, 2004, 72: 223-229). Serum HBsAg concentration in mice was measured using a commercially available ELISA kit (HBsAg EIA 3.0 480 Test Kit, Bio-Rad).
(§2) Animals were treated with RNA destabilizer as follows: Starting on Day 0, a 10 mg/kg dosage of RNA destabilizer was administered orally to animals on a once-daily frequency for a total of seven doses across the duration of the study. Animals were treated with encapsidation inhibitor as follows: Starting on Day 0, a 100 mg/kg dosage of encapsidation inhibitor was administered orally to animals on a once-daily frequency for a total of seven doses across the duration of the study. Animals were treated with nucleos(t)ide analog as follows: Starting on Day 0, a 0.4 mg/kg dosage of nucleos(t)ide analog was administered orally to animals on a once-daily frequency for a total of seven doses across the duration of the study. The RNA destabilizer, the encapsidation inhibitor, and nucleos(t)ide analog were each dissolved in the same co-solvent formulation for administration and negative control animals were administered the co-solvent formulation alone. To calculate treatment-specific effects, the treated groups are compared against negative control (vehicle treated) animals.
(§3) The effect of these treatments was determined by collecting blood on Days −1 (prior to study's treatment phase), 4, and 7 and analyzing it for serum HBV DNA and HBsAg content.

In experiment [3] the test system is HBsAg. The experiment can be described thus: Serum HBsAg in pHBV1.3 hydrodynamic injection mouse model of HBV (Example 12). Format: in vivo, NOD.CB17-Prkdc scid/J mice; HBV genotype D, serotype ayw. The settings on record: once daily oral from Day 0: RNA destabilizer 10 mg/kg, encapsidation inhibitor 100 mg/kg, nucleos(t)ide analog 0.4 mg/kg, group mean ± SEM, n=7 or 8, from negative control. The protocol:
as §1, §2, §3

The subject of experiment [4] is HBV DNA. Format: in vivo, C57BL/6 mice; HBV serotype Ayw, genotype D. The settings on record: for Serum HBV DNA: group mean ± SEM, n=6. The protocol: Prior to treatment start, 1×10^11 viral genomes of an adeno-associated virus (AAV) vector carrying a 1.3-fold overlength copy of an HBV genome (serotype Ayw, genotype D) was administered to C57BL/6 mice via intravenous injection. Introduction of this viral vector results in the expression of HBV DNA and HBV surface antigen (HBsAg) amongst other HBV products. Serum HBV DNA levels in mice was measured using a quantitative polymerase chain reaction (QPCR) assay, HBsAg in serum and liver of mice was measured using an enzyme-linked immunosorbent assay (ELISA), and anti-HBsAg antibodies were measured using ELISA.
Treatment effects on serum HBV DNA were determined by collecting a small amount of blood on Days 0 (pre-treatment) and 14, as well as from terminal blood collections at Day 42. Treatment effects on HBsAg in serum and liver were determined from terminal sample collections at Day 42.
Any individual animal samples measured to fall below assay lower limit of quantitation (LLOQ) were reported as the LLOQ value.

In general, EC50 refers to the concentration at which the effect is half-maximal.

Read-outs that look alike come from different tables or passages of the source.

With `CC(C)OC(=O)[C@H](C)N[P@](=O)(CO[C@H](C)Cn1cnc2c(N)ncnc21)Oc1ccccc1` [TAF, tenofovir alafenamide], the concentration giving a half-maximal response (EC50) in experiment [1] is 4.12 nM.
For the compound `CC(C)OC(=O)OCOP(=O)(CO[C@H](C)Cn1cnc2c(N)ncnc21)OCOC(=O)OC(C)C.O=C(O)/C=C/C(=O)O` [TDF, tenofovir disoproxil fumarate, reference compound], the “Serum HBV DNA log reduction” value in experiment [2] (Day 4) came to 1.2 ± 0.2 log; in experiment [2] (Day 7) it was 1.7 ± 0.1 log. The “Serum HBsAg log reduction” value in experiment [3] (Day 4) is on record as −0.01 ± 0.12 log; in experiment [3] (Day 7), 0.10 ± 0.07 log. Besides, the “Serum HBV DNA” value is reported as 4.31 ± 0.10 log10 copies/microliter in experiment [4] (Day 0 (pre-treatment)); 3.11 ± 0.15 log10 copies/microliter in experiment [4] (Day 14, siRNA 3 mg/kg s.c. Days 0 and 28, encapsidation inhibitor 100 mg/kg and/or TDF 1 mg/kg oral daily); 3.58 ± 0.14 log10 copies/microliter in experiment [4] (Day 42, siRNA 3 mg/kg s.c. Days 0 and 28, encapsidation inhibitor 100 mg/kg and/or TDF 1 mg/kg oral daily Days 0-41). Besides, the “HBV DNA inhibition, decrease from Day 0 to Day 42” value in experiment [4] (serum, AAV-HBV mice, siRNA 3 mg/kg s.c. Days 0 and 28, encapsidation inhibitor 100 mg/kg and/or TDF 1 mg/kg oral daily) worked out at 0.73 log10.

The record behind these values is patent US20220168430A1, “THERAPEUTIC METHODS FOR TREATING HEPATITIS B” (priority 2019, published 2022).
